Test results reported in ChEMBL document CHEMBL1201862, “PubChem BioAssay data set” (2004).
Active and inactive are the calls of the source.

What was measured:
Caspase-3 = target: T1, Caspase-3 (Homo sapiens, UniProt P42574); format: functional;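 also: Dose-response selectivity test against caspase-3 for candidate inhibitors of sentrin-specific proteases (SENPs)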
T1 sequence (P42574 whole entry): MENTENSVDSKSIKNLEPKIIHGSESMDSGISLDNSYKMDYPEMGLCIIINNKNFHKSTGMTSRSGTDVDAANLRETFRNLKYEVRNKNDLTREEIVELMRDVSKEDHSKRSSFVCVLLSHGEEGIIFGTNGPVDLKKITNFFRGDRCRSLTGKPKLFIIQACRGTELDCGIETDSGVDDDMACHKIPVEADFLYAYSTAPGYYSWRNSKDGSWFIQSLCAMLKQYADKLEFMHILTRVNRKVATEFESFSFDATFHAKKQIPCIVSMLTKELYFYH

[1] = target: T2, Sentrin-specific protease 6 (Homo sapiens, UniProt Q9GZR1); format: functional;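 also: Luminescence-based dose-response confirmatory assay of SENP6 inhibition, following up an ultra-high-throughput screen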
T2 sequence (Q9GZR1 whole entry): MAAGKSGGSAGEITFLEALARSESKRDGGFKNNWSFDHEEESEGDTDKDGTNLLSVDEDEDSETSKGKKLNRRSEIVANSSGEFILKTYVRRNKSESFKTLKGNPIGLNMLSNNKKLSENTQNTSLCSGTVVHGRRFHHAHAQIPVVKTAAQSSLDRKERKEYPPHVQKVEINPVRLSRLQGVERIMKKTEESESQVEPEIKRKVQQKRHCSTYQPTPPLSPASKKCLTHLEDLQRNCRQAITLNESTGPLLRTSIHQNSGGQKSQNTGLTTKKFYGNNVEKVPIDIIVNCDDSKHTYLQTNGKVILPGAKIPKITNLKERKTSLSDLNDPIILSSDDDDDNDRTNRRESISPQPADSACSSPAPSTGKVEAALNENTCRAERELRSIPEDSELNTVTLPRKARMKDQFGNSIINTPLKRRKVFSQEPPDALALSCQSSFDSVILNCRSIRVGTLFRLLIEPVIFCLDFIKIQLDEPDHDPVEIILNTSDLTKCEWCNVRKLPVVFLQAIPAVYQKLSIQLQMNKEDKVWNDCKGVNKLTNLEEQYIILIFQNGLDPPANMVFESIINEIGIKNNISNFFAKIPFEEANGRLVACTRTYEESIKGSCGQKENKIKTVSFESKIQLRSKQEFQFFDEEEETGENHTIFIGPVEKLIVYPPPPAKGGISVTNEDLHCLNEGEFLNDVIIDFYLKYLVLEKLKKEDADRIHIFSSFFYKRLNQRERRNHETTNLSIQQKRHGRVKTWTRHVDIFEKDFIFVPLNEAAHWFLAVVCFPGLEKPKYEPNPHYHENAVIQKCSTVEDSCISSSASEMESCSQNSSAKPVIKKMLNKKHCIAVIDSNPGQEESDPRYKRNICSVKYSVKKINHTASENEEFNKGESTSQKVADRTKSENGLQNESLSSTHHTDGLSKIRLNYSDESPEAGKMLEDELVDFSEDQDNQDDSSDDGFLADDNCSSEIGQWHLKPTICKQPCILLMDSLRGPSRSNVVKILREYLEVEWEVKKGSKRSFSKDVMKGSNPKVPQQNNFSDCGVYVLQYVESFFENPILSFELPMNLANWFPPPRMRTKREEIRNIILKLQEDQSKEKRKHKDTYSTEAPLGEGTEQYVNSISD

[2] = target: T3, Sentrin-specific protease 8 (Homo sapiens, UniProt Q96LD8); format: functional
T3 sequence (Q96LD8 whole entry): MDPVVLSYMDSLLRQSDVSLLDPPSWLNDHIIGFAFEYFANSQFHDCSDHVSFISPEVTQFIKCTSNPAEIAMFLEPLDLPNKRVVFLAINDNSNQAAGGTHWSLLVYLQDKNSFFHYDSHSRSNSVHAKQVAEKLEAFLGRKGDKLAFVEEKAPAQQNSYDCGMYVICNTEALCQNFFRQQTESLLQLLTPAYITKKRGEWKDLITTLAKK

[3] = target: T4, Sentrin-specific protease 7 (Homo sapiens, UniProt Q9BQF6); format: functional;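 also: Luminescence-based dose-response confirmation of ultra-high-throughput screening hits, measuring inhibition of SENP7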
T4 sequence (Q9BQF6 whole entry): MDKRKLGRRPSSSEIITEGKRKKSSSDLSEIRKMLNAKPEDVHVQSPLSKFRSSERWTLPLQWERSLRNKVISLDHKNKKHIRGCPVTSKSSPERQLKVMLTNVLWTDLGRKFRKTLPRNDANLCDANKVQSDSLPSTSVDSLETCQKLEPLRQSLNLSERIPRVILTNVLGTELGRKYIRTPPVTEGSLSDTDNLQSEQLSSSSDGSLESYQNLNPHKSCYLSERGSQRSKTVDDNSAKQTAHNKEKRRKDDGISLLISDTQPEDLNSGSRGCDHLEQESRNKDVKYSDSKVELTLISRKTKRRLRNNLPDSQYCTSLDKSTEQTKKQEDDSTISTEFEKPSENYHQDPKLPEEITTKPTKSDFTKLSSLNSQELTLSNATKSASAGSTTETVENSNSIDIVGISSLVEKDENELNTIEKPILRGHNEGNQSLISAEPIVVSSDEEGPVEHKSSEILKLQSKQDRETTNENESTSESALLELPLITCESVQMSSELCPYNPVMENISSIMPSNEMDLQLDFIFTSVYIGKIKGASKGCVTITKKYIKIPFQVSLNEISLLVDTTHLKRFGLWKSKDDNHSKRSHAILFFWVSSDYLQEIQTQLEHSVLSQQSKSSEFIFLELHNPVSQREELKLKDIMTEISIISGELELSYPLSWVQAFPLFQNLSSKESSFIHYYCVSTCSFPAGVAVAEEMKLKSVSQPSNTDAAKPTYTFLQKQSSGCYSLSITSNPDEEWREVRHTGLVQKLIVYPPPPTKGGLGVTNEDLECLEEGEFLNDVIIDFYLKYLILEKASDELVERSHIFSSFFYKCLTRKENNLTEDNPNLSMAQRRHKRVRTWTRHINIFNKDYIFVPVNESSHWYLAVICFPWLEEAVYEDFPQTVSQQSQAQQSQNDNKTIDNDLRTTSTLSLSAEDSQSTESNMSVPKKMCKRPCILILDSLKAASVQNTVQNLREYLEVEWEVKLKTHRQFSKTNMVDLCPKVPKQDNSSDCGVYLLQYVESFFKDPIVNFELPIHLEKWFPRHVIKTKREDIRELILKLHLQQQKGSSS

[4] = Shn3 3'UTR reporter inhibitors, dose response, cell-based, Clone20 osteoblasts, firefly luciferase, cherry-picked (AID 624132); format: functional;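 also: firefly luciferase luminescence from reporter carrying the Shn3 3'UTR in osteoblasts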
[5] = Luminescence Cell-Based Dose Retest to Confirm Inhibitors of Cancer Stem Cells. [Related pubchem assays (depositor defined):AID2717, AID2721]; format: functional; conditions: Homo sapiens
[6] = control 3'UTR Renilla luciferase suppression, dose response, counter-screen for Shn3 inhibitor project, cell-based, Clone20-Shn3RL, cherry-picked (AID 624133); format: functional
[7] = HepG2 cell cytotoxicity, dose response, cytotoxicity control for Shn3 inhibitor project, CellTiter-Glo, cherry-picked (AID 624134); format: functional, cell-based
[8] = microbe, parasite or virus in culture; format: functional; conditions: Mycobacterium tuberculosis
[9] = A Cell Based Secondary Assay To Explore Cytotoxicity of Compounds that Sensitize Mycobacterium Tuberculosis to Beta-Lactam Antibiotics.; format: functional
[10] = growth suppression of beta-catenin-knockout colon cells, dose response, cell-based, HCT116, human colon tumor (AID 1045); format: functional;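 also: HCT116 colon tumor cells with beta catenin knocked out; cells exposed to compound for 60 hours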
[11] = growth suppression of PTEN-null colon cells, dose response, cell-based, HCT116 PTEN knockout (AID 1047); format: functional;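 also: HCT116 colon tumor cells with PTEN knocked out; cells exposed to compound for 60 hours before readout; potency for loss of cell viability measured by luminescence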
[12] = inhibitors of HIV Env-driven cell fusion, dose response, cherry-pick (AID 652057); format: functional, cell-based
[13] = inhibitors of clade B AD8 Env fusion, dose response, cell-based, cherry-pick (AID 652062); format: functional;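 also: luciferase signal from cell-cell fusion driven by HIV-1 clade B AD8 Env; potency is for inhibitors of fusion seen as a drop in luminescence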
[14] = off-target signal loss in HeLa-CEM21 co-culture – HeLa F-luc CTL cells, cherry-picked, counter-screen for HIV-1 Env fusion inhibitor project, dose response (AID 652040); format: functional, cell-based;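 also: potency for signal decrease marking cytotoxic or nonspecific inhibition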
[15] = ZM109 Env clade C HIV-1 fusion inhibitors, dose response, HeLa effector, CEM target cells, luciferase, cherry-pick (AID 652058); format: functional, cell-based
[16] = target: T3, Sentrin-specific protease 8; format: functional; remark: listed apart in the source
[17] = target: T3, Sentrin-specific protease 8; format: functional; remark: listed apart in the source
[18] = target: FAD-linked sulfhydryl oxidase ALR (Homo sapiens, UniProt P55789); test: inhibitors of human ALR sulfhydryl oxidase, dose response, biochemical, H2O2 detection, luminescence, cherry-pick (AID 493248)
Chain of FAD-linked sulfhydryl oxidase ALR (P55789 whole entry): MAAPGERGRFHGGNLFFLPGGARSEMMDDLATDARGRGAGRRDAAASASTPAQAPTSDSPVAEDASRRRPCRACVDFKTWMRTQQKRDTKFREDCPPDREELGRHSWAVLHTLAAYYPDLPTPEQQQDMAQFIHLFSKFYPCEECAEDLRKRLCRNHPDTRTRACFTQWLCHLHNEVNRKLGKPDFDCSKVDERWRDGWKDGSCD

[19] = cytotoxicity in OVCAR8 ovarian cancer cells, dose response, PAX8 project, cell-based, plate reader, dry powder samples (AID 743197); format: functional; conditions: OVCAR-8
Paired box protein Pax-8 = Paired box protein Pax-8 (Homo sapiens, UniProt Q06710); test: inhibitors of PAX8-driven TPO luciferase reporter, dose response, RMG-I cells, cherry-pick (AID 687027); format: functional, cell-based;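 also: luciferase reporter driven by Pax8 target thyroperoxidase promoter measured by SteadyGlo luminescence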
Chain of Paired box protein Pax-8 (Q06710 whole entry): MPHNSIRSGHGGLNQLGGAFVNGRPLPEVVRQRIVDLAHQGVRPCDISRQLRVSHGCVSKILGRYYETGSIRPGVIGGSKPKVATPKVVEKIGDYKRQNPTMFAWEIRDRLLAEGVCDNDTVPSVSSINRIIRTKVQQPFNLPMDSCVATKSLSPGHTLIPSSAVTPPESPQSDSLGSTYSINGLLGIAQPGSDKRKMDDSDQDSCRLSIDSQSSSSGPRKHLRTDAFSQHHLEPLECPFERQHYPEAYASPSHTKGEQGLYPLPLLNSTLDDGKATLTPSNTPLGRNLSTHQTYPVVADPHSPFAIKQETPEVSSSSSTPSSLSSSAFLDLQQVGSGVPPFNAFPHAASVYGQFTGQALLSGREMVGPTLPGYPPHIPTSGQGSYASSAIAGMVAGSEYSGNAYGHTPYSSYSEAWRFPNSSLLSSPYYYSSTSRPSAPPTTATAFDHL

[20] = NIH:OVCAR-3 ovarian cancer cell cytotoxicity, dose response, PAX8 inhibitor project, plate reader, dry powder samples (AID 743044); format: functional, cell-based

## COC(=O)c1ccc(-c2ccc(F)cc2)nc1C
Caspase-3
  IC50: 13.2 µM (active)
[1]
  IC50: 31.9 µM (active)
[2]
  IC50: 64.9 µM (active)
[3]
  IC50: 8.25 µM (active)

## CCOc1cc2c(cc1OCC)-n1cccc1C(c1ccc(C(C)C)cc1)NC2 (centres undefined)
[4]
  AC50: 7.22 µM (active)
[5]
  AC50: 11.4 µM (active)
[6]
  AC50: 4.99 µM (active)
[7]
  AC50: 67.7 µM (active)
[8]
  CC50: > 40 µM (active)

## Cc1ccc(C(=O)c2sc3c(c2N)c(=O)[nH]c(=O)n3CCc2ccccc2)cc1
[9]
  CC50: 25.1 µM (active)
[10]
  EC50: 9.5 µM (active)
[11]
  EC50: 10.7 µM (active)

## CCOC(=O)C1(Cc2ccc(Cl)cc2)CCN(C(C)Cc2ccc(O)c(OC)c2)CC1 (centres undefined)
[4]
  AC50: 1.33 µM (active)
[6]
  AC50: 2.65 µM (active)
[7]
  AC50: 17.6 µM (active)

## COc1ccccc1N1CCN(S(=O)(=O)c2ccc3[nH]c(-c4ccccc4)nc3c2)CC1
[9]
  CC50: > 40 µM (active)

## CN(c1ccccc1)S(=O)(=O)c1ccc(Cl)c(C(=O)Nc2nc3ccccc3[nH]2)c1
[12]
  AC50: 3.18 µM (active)
[13]
  AC50: 5.66 µM (active)
[14]
  AC50: 5.75 µM (active)
[15]
  AC50: 1.6 µM (active)

## COc1cccc(C(=O)NC(=S)Nc2ccc(N(C)C)cc2)c1
Caspase-3
  IC50: 10.7 µM (active)
[1]
  IC50: 16.1 µM (active)
[2]
  IC50: 21 µM (active)
[3]
  IC50: 6.14 µM (active)

## COc1ccc(/C=C2/CCCC(C(=O)C(F)(F)F)=C2O)cc1OC
[9]
  CC50: > 40 µM (active)

## CN(C)c1ccc(NC(=O)Oc2ccccc2)cc1
[16]
  IC50: 78.1 µM (inactive)
[17]
  IC50: > 100 µM (inactive)
[18]
  AC50: 1.88 µM (active)

## O=C(Nc1ccc(S(=O)(=O)N2CCCCC2)cc1)C1CCCN(C(=O)c2ccc(Cl)cc2)C1 (centres undefined)
[9]
  CC50: > 40 µM (active)

## COc1ccc(C(C(=O)NC(C)(C)C)N(CCC(C)C)C(=O)CCC(=O)Nc2cc(C)on2)cc1 (centres undefined)
[12]
  AC50: 7.02 µM (active)
[13]
  AC50: 22.8 µM (active)
[14]
  AC50: 16.6 µM (active)
[15]
  AC50: 18.1 µM (active)

## CC(C)(C)NCCCOc1ccc(Cl)cc1C(C)(C)C
[9]
  CC50: 39.3 µM (active)

## COC(=O)[C@@]1(C)[C@H]2C(=O)N(Cc3ccccc3)C(=O)[C@H]2[C@H]2CN=C(SCc3ccc(C#N)cc3)N21
[12]
  AC50: 0.566 µM (active)
[13]
  AC50: 0.609 µM (active)
[14]
  AC50: 1.09 µM (active)
[15]
  AC50: 0.785 µM (active)

## CCOc1ccccc1Nc1cc(C)nc2ccccc12
[4]
  AC50: 8.14 µM (active)
[6]
  AC50: 5.31 µM (active)
[7]
  AC50: 48.6 µM (active)

## C[C@H](CO)N1C[C@H](C)[C@H](CN(C)C(=O)c2ccncc2)OCc2ccccc2-c2c(n(C)c3ccccc23)C1=O
[12]
  AC50: 9.94 µM (active)
[13]
  AC50: 33.1 µM (active)
[15]
  AC50: 4.23 µM (active)

## O=C(Nc1ccc(F)cc1)N1CC(=O)N2[C@@H](CO)[C@@H](c3ccc(C#Cc4ccc(F)cc4)cc3)[C@@H]2C1
[19]
  AC50: > 70 µM (inactive)
Paired box protein Pax-8
  AC50: 10.4 µM (active)
[20]
  AC50: 16.2 µM (active)

## C[C@H]1CN([C@@H](C)CO)C(=O)c2c(c3ccccc3n2C)-c2ccccc2CO[C@@H]1CN(C)S(=O)(=O)c1ccsc1
Paired box protein Pax-8
  AC50: 3.6 µM (active)
[20]
  AC50: 51.1 µM (active)
